In data set [1] the target is T1, first bromodomain (BrD1) of human BRD4 (Homo sapiens, UniProt O60885).
T1 construct: the first bromodomain (BrD1) of human BRD4; poly-His (cleaved yes); made in house
Kind of data set: Fluorescence anisotropy binding assay (competition with FITC-labeled MS417 probe). To be noted: FITC-MS417 probe 80 nM, PBS pH 7.4, 1 hour, 25° C., read-out: BRD4_1 IC50. The essentials:
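Competitive fluorescence anisotropy in PBS pH 7.4: 80 nM FITC-MS417 probe, 0.25 to 1 μM tag-cleaved BrD1, titrated unlabeled ligand, 1 hour at 25° C. IC50 values were fitted and converted to Ki using a corrected Cheng-Prusoff equation assuming one-site competition.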
(In general: In fluorescence polarisation assays a small probe gives low polarisation when free and higher when bound to something large.)

Data set [2] concerns the target T2, BRD4_2 (Homo sapiens, UniProt O60885).
T2 construct: contains two tandem bromodomains (BrD1 and BrD2)
The data set is described as follows: Fluorescence anisotropy binding assay (competition with FITC-labeled MS417 probe), BRD4_2. The following applies: FITC-MS417 probe 80 nM, PBS pH 7.4, 1 hour, 25° C.

A word on the IC50: it is the midpoint of a concentration-inhibition curve. Usually melting point stands for the temperature of the solid-liquid transition. Consider `CC1=C(Nc2ccccn2)CCC1=O` [Example 01-28, 2-methyl-3-(pyridin-2-ylamino)cyclopent-2-enone], for which the melting point was in the range of 163 to 165 °C. In addition, in data set [1], the half-inhibitory concentration (IC50) is more than 10 µM. Also, in data set [2], the half-maximal inhibitory concentration (IC50) is more than 10 µM.
The compound `CC1=C(Nc2cccnc2)CCC1=O` [Example 01-29, 2-methyl-3-(pyridin-3-ylamino)cyclopent-2-enone] displayed a melting point of 133 to 135 °C. In addition, the IC50 in data set [1] is more than 10 µM. The compound further gave a half-inhibitory concentration (IC50) in data set [2] of more than 10 µM.
The compound `CC1=C(Nc2ccncc2)CCC1=O` [Example 01-30, 2-methyl-3-(pyridin-4-ylamino)cyclopent-2-enone] registered a melting point of 203 to 205 °C. Besides, the IC50 in data set [1] fell in the range of 1 to 10 µM. Also, the IC50 in data set [2] lay in the range of 1 to 10 µM.
Regarding `CC1=C(Nc2ccc(C(N)=O)cc2)CCCC1=O` [Example 01-35, 4((2-methyl-3-oxocyclohex-1-en-1-yl)amino)benzamide], the melting point was in the range of 221 to 223 °C. The concentration for half-maximal inhibition (IC50) in data set [1] was 1 to 10 µM. For the same compound, the 50% inhibitory concentration (IC50) in data set [2] lay in the range of 1 to 10 µM.
Compound `CC1=C(Nc2cccc(CC(=O)O)c2)CCCC1=O` [Example 01-37, 2-(3((2-methyl-3-oxocyclohex-1-en-1-yl)amino)phenyl)acetic acid] yielded a melting point of 203 to 207 °C. Further, the IC50 in data set [1] is more than 10 µM. Further, the IC50 in data set [2] is more than 10 µM.
`CC(=O)Nc1ccc(Cl)c(NC2=C(C)C(=O)CC2)c1` [Example 01-42, N-(4-chloro-3-((2-methyl-3-oxocyclopent-1-en-1-yl)amino)phenyl)-acetamide] gave a melting point of 265 to 268 °C. In addition, in data set [1], the IC50 is less than 1 µM. In data set [2], this compound gave a 50% inhibitory concentration (IC50) of 1 to 10 µM.
The matching figures for `COC(=O)c1ccc(NC2=C(C)C(=O)CC2)c(I)c1` [Example 01-43, methyl 3-iodo-4-((2-methyl-3-oxocyclopent-1-en-1-yl)amino)benzoate]: 178 to 180 °C, 1 to 10 µM and 1 to 10 µM.
For `CC1=C(Nc2cccc(C(=O)O)c2Cl)CCC1=O` [Example 01-44, 2-chloro-3((2-methyl-3-oxocyclopent-1-en-1-yl)amino)benzoic acid] the same measures were 230 to 232 °C, 1 to 10 µM and more than 10 µM.
For `CC1=C(Nc2cc(C(=O)O)ccc2Br)CCCC1=O` [Example 01-48, 4-bromo-3((2-methyl-3-oxocyclohex-1-en-1-yl)amino)benzoic acid] the same measures were 265 to 267 °C, 1 to 10 µM and more than 10 µM.
`CC1=C(Nc2ncccc2Cl)CCCC1=O` [Example 01-49, 3-[(3-chloropyridin-2-yl)amino]-2-methylcyclohex-2-en-1-one] showed a melting point of 113 to 115 °C. For the same compound, the half-maximal inhibitory concentration (IC50) in data set [1] fell in the range of 1 to 10 µM. In data set [2], this compound registered an IC50 of more than 10 µM.
Compound `CC1=C(Nc2nccnc2Cl)CCCC1=O` [Example 01-50, 3-[(3-chloropyrazin-2-yl)amino]-2-methylcyclohex-2-en-1-one] gave a melting point of 116 to 118 °C. Moreover, the IC50 in data set [1] was more than 10 µM. For the same compound, the IC50 in data set [2] was more than 10 µM.
In turn, `CC1=C(Nc2ccncc2Cl)CCCC1=O` [Example 01-51, 3-[(3-chloropyridin-4-yl)amino]-2-methylcyclohex-2-en-1-one] returned a melting point of 135 to 138 °C. In addition, in data set [1], the concentration for half-maximal inhibition (IC50) lay within 1 to 10 µM. The concentration for half-maximal inhibition (IC50) in data set [2] is more than 10 µM.
The matching figures for `CC1=C(Nc2cc(C(=O)O)c3ccccc3c2)CCCC1=O` [Example 01-52, 3-[(2-methyl-3-oxocyclohex-1-en-1-yl)amino]naphthalene-1-carboxylic acid]: 270 to 272 °C, 1 to 10 µM and 1 to 10 µM.
In the case of `CC1=C(Nc2ccc3cc(C(=O)O)ccc3c2Cl)CCCC1=O` [Example 01-53, 5-chloro-6-[(2-methyl-3-oxocyclohex-1-en-1-yl)amino]naphthalene-2-carboxylic acid], the melting point was 272 to 275 °C (dec.). In addition, the IC50 in data set [1] was less than 1 µM. In addition, the IC50 in data set [2] lay in the range of 1 to 10 µM.
Consider `CC1=C(Nc2ccc3ncccc3c2)CCCC1=O` [Example 01-54, 2-methyl-3-[(quinolin-6-yl)amino]cyclohex-2-en-1-one], for which the melting point was in the range of 208 to 210 °C. In addition, in data set [1], the IC50 fell in the range of 1 to 10 µM. The same compound displayed a concentration for half-maximal inhibition (IC50) in data set [2] of 1 to 10 µM.
`CC1=C(Nc2ccc3cnccc3c2)CCCC1=O` [Example 01-55, 3-[(isoquinolin-6-yl)amino]-2-methylcyclohex-2-en-1-one] came in with a melting point of 163 to 165 °C. Further, the IC50 in data set [1] was 1 to 10 µM. In addition, the 50% inhibitory concentration (IC50) in data set [2] was 1 to 10 µM.
`CC1=C(Nc2ccc3ccncc3c2)CCCC1=O` [Example 01-56, 3-[(isoquinolin-7-yl)amino]-2-methylcyclohex-2-en-1-one]: the melting point lay within 145 to 147 °C. The IC50 in data set [1] was in the range of 1 to 10 µM. This compound returned an IC50 in data set [2] of more than 10 µM.
For `CC1=C(Nc2ccc3cccnc3c2)CCCC1=O` [Example 01-57, 2-methyl-3-[(quinolin-7-yl)amino]cyclohex-2-en-1-one] the same measures were 133 to 135 °C, 1 to 10 µM and 1 to 10 µM.
The matching figures for `CC1=C(Nc2cc3ccccc3cn2)CCCC1=O` [Example 01-58, 3-[(isoquinolin-3-yl)amino]-2-methylcyclohex-2-en-1-one]: 205 to 208 °C, 1 to 10 µM and 1 to 10 µM.
The matching figures for `CC1=C(Nc2cnc3ccccc3c2)CCCC1=O` [Example 01-59, 2-methyl-3-[(quinolin-3-yl)amino]cyclohex-2-en-1-one]: 172 to 175 °C, 1 to 10 µM and more than 10 µM.
In turn, `CC1=C(Nc2ccc3nccnc3c2)CCCC1=O` [Example 01-60, 2-methyl-3-[(quinoxalin-6-yl)amino]cyclohex-2-en-1-one] displayed a melting point of 110 to 112 °C. For the same compound, the IC50 in data set [1] lay within 1 to 10 µM. The IC50 in data set [2] lay in the range of 1 to 10 µM.
Consider `CC1=C(Nc2ccc3ncncc3c2)CCCC1=O` [Example 01-61, 2-methyl-3-[(quinazolin-6-yl)amino]cyclohex-2-en-1-one], for which the melting point is 215 to 216 °C. For the same compound, the IC50 in data set [1] is more than 10 µM. This compound displayed an IC50 in data set [2] of more than 10 µM.
Regarding `CC1=C(Nc2ccc3cc[nH]c3c2)CCCC1=O` [Example 01-62, 3-[(1H-indol-6-yl)amino]-2-methylcyclohex-2-en-1-one], the melting point was in the range of 227 to 230 °C. Also, in data set [1], the half-inhibitory concentration (IC50) was less than 1 µM. The compound also yielded a concentration for half-maximal inhibition (IC50) in data set [2] of 1 to 10 µM.
The compound `CC1=C(Nc2ccc3[nH]c(=O)[nH]c3c2)CCCC1=O` [Example 01-63, 5-[(2-methyl-3-oxocyclohex-1-en-1-yl)amino]-2,3-dihydro-1H-1,3-benzodiazol-2-one] returned a melting point of 233 to 235 °C. For the same compound, the IC50 in data set [1] is 1 to 10 µM. This compound also yielded an IC50 in data set [2] of 1 to 10 µM.
For the compound `CC1=C(Nc2ccc3[nH]c(C(=O)O)cc3c2)CCCC1=O` [Example 01-64], the melting point fell in the range of 310 to 315 °C. Further, in data set [1], the IC50 is less than 1 µM. Besides, the IC50 in data set [2] lay within 1 to 10 µM.
The matching figures for `CC1=C(Nc2cc(N)ccc2Cl)CCCC1=O` [Example 02-10, 3-((5-amino-2-chlorophenyl)amino)-2-methylcyclohex-2-enone]: 182 to 184 °C, 1 to 10 µM and 1 to 10 µM.
For `CC1=C(Nc2ccc(N)cc2Cl)CCCC1=O` [Example 02-12, 3-((4-amino-2-chlorophenyl)amino)-2-methylcyclohex-2-enone] the same measures were 156 to 158 °C, 1 to 10 µM and 1 to 10 µM.
The matching figures for `CC1=C(Nc2cccc(N)c2Cl)CCC1=O` [Example 02-13, 3-((3-amino-2-chlorophenyl)amino)-2-methylcyclopent-2-enone]: 223 to 225 °C, 1 to 10 µM and 1 to 10 µM.
The compound `CC1=C(Nc2cc(N)ccc2Cl)CCC1=O` [Example 02-15, 3-((5-amino-2-chlorophenyl)amino)-2-methylcyclopent-2-en-1-one] had a melting point of 166 to 168 °C. Further, the IC50 in data set [1] was in the range of 1 to 10 µM. In data set [2], the 50% inhibitory concentration (IC50) lay within 1 to 10 µM.
As for `COc1ccc(NC(=O)c2ccc(NC3=C(C)C(=O)CC3)c(I)c2)cc1` [Example 04-104, 3-iodo-N-(4-methoxyphenyl)-4-((2-methyl-3-oxocyclopent-1-en-1-yl)amino)benzamide], the melting point is 222 to 224 °C. Further, the IC50 in data set [1] was less than 1 µM. In addition, the 50% inhibitory concentration (IC50) in data set [2] fell in the range of 1 to 10 µM.
The matching figures for `CC1=C(Nc2cc(C(=O)Nc3ccccc3C)c3ccccc3c2)CCCC1=O` [Example 04-106, 3-((2-methyl-3-oxocyclohex-1-en-1-yl)amino)-N-(o-tolyl)-1-naphthamide]: 249 to 250 °C (dec.), less than 1 µM and 1 to 10 µM.
For `COc1ccc(C(=O)Nc2ccc(Cl)c(NC3=C(C)C(=O)CC3)c2)cc1` [Example 05-37, N-(4-chloro-3-((2-methyl-3-oxocyclopent-1-en-1-yl)amino)phenyl)-4-methoxybenzamide] the same measures were 254 to 257 °C, less than 1 µM and more than 10 µM.
Compound `CC1=C(Nc2cc(NC(=O)c3ccccc3C)ccc2Cl)CCC1=O` [Example 05-38, N-(4-chloro-3-((2-methyl-3-oxocyclopent-1-en-1-yl)amino)phenyl)-2-methylbenzamide] showed a melting point of 230 to 232 °C. Also, the half-maximal inhibitory concentration (IC50) in data set [1] is less than 1 µM. Also, the concentration for half-maximal inhibition (IC50) in data set [2] is less than 1 µM.

Source of the values: patent US9884806B2, “Cyclic vinylogous amides as bromodomain inhibitors” (ICAHN SCHOOL OF MEDICINE AT MOUNT SINAI, priority 2013, dated 2018).
